Key:
normotensive dogs = experiment: Intraocular pressure and ocular surface hyperemia in normotensive dogs; format: in vivo, dog
Experimental: Isopropyl 2-(3-(6-hexyl-1-naphthamido)phenoxy)acetate was tested in normotensive dogs at 0.05%, dosing once daily for 5 days. The maximum intraocular pressure (IOP) decrease from baseline was 4.7 mmHg (28%) at 30 h; the maximum ocular surface hyperemia (OSH) score was 1.0 at 26 h. This compound was also tested in laser-induced hypertensive monkeys, using one single day dose. At 0.05%, the maximum IOP decrease from baseline was 17.1 mmHg (48%) at 24 h.
Isopropyl 2-(3-(6-(1-hydroxyhexyl)-1-naphthamido)phenoxy)acetate was tested in normotensive dogs at two concentrations, dosing once daily for 5 days. At 0.005%, the maximum intraocular pressure (IOP) decrease from baseline was 4.1 mmHg (22%) at 4 h; the maximum ocular surface hyperemia (OSH) score was 1.6 at 2 h. At 0.01%, the maximum intraocular pressure (IOP) decrease from baseline was 4.4 mmHg (26%) at 4 h; the maximum ocular surface hyperemia (OSH) score was 1.5 at 50 h. This compound was also tested in laser-induced hypertensive monkeys at two concentrations, using one single day dose. At 0.005%, the maximum IOP decrease from baseline was 8.1 mmHg (30%) at 24 h. At 0.01%, the maximum IOP decrease from baseline was 15.4 mmHg (42%) at 24 h.
Isopropyl 2-(3-(6-butyl-1-naphthamido)phenoxy)acetate was tested in normotensive dogs at 0.01%, dosing once daily for 4 days. The maximum intraocular pressure (IOP) decrease from baseline was 5.1 mmHg (26%) at 78 h; the maximum ocular surface hyperemia (OSH) score was 0.9 at 4 h. This compound was also tested in laser-induced hypertensive monkeys, using one single day dose. At 0.01%, the maximum IOP decrease from baseline was 14.1 mmHg (38%) at 24 h.
Isopropyl 2-(3-(3-hexylquinoline-8-carboxamido)phenoxy)acetate was tested in normotensive dogs at 0.01%, dosing once daily for 5 days. The maximum intraocular pressure (IOP) decrease from baseline was 2.8 mmHg (14%) at 100 h; the maximum ocular surface hyperemia (OSH) score was 0.8 at 28 h. This compound was also tested in laser-induced hypertensive monkeys, using one single day dose. At 0.01%, the maximum IOP decrease from baseline was 8.8 mmHg (19%) at 6 h.

EP4 [1] = target: T1, EP4 (Homo sapiens, UniProt P35408); experiment: EP4 binding; details: unit inferred
Experimental: (§1) Data from running binding and activity studies on the compounds of the invention were carried out as described in the U.S. Pat. No. 7,427,685, the contents of which are incorporated herein by reference.

EP2 [2] = target: T2, EP2 (Homo sapiens, UniProt P43116); experiment: EP2 cAMP functional assay; format: cell-based; details: unit inferred
Experimental: as §1

EP2 [3] = target: T2, EP2; experiment: EP2 binding; details: unit inferred
Experimental: as §1

EP4 [4] = target: T1, EP4; experiment: EP4 flipr functional assay; format: cell-based; details: unit inferred
Experimental: as §1

hEP3A = target: T3, hEP3A (Homo sapiens, UniProt P43115); experiment: Other receptors functional activity, hEP3A; format: cell-based
T3 sequence (P43115 1-390): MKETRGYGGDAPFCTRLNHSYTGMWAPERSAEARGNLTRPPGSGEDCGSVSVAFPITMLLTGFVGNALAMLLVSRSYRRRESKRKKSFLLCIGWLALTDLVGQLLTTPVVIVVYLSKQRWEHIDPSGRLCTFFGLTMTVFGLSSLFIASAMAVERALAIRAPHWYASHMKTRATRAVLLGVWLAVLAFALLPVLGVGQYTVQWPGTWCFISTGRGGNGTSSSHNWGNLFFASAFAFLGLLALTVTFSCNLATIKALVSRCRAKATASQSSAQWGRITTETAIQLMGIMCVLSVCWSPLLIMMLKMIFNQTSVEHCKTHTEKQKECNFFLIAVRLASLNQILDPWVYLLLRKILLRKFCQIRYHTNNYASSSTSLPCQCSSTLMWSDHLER
Experimental: as §1

hTP = target: T4, hTP (Homo sapiens, UniProt P21731); experiment: Other receptors functional activity, hTP; format: cell-based
T4 sequence (P21731 1-343): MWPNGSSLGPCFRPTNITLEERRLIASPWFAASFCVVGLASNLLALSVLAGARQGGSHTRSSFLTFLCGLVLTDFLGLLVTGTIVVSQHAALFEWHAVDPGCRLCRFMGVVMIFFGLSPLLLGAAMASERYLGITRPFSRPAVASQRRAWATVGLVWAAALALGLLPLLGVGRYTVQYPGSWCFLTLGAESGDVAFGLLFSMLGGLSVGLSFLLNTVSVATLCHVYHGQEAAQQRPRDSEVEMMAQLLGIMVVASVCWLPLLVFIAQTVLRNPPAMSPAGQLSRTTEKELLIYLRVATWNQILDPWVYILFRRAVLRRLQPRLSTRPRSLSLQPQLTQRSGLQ
Experimental: as §1

EP4 [5] = target: T1, EP4; experiment: EP4 cAMP functional assay; format: cell-based; details: unit inferred
Experimental: as §1

T2 sequence (P43116 whole entry): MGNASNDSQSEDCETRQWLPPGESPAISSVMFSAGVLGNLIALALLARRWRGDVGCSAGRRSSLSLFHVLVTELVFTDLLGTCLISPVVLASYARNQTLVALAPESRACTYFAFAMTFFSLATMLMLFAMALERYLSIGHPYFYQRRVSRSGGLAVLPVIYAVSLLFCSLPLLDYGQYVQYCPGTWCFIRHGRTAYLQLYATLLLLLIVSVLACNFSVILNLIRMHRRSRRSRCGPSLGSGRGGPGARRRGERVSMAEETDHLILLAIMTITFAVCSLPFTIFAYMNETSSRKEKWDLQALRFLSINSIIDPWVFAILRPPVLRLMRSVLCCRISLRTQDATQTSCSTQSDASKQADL
T1 sequence (P35408 whole entry): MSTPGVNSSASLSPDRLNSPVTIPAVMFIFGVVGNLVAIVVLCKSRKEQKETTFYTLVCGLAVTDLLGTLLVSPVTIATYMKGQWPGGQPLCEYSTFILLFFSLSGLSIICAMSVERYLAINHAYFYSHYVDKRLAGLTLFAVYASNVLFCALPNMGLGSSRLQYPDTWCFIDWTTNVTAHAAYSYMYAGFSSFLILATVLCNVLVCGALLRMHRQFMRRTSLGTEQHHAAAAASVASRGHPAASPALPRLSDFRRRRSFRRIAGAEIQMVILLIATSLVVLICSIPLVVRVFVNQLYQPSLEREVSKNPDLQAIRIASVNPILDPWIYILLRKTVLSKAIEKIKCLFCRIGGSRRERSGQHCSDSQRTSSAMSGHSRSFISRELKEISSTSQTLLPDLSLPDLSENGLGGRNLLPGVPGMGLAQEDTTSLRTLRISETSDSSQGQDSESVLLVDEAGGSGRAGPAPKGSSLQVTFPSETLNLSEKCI

CCCCCC(O)c1ccc2c(C(=O)Nc3cccc(OCC(=O)OC(C)C)c3)cccc2c1 (centres unmarked) [Isopropyl 2-(3-(6-(1-hydroxyhexyl)-1-naphthamido)phenoxy)acetate]
maximum ocular surface hyperemia (OSH) score (normotensive dogs; 0.005%, once daily for 5 days, at 2 h): 1.6 | maximum ocular surface hyperemia (OSH) score (normotensive dogs; 0.01%, once daily for 5 days, at 50 h): 1.5

CCc1ccc2c(C(=O)Nc3cccc(OCC(=O)O)c3)cccc2c1 [Example 6, 2-(3-(6-Ethyl-1-naphthamido)phenoxy)acetic acid]
Ki (EP4 [1]): > 10000 nM | EC50 (EP2 [2]): 5 nM | Ki (EP2 [3]): 112 nM

CCCCCC(O)c1ccc2c(C(=O)Nc3cccc(OCC(=O)O)c3)cccc2c1 (centres unmarked) [Example 10, 2-(3-(6-(1-hydroxyhexyl)-1-naphthamido)phenoxy)acetic acid]
Ki (EP4 [1]): > 10000 nM | EC50 (EP2 [2]): 0.2 nM | Ki (EP2 [3]): 37 nM

CCCc1ccc2c(C(=O)Nc3cccc(OCC(=O)O)c3)cccc2c1 [Example 5, 2-(3-(6-Propyl-1-naphthamido)phenoxy)acetic acid]
Ki (EP4 [1]): 6920 nM | EC50 (EP4 [4]): 7130 nM | EC50 (EP2 [2]): 5 nM | Ki (EP2 [3]): 30 nM

CCCCCCc1ccc2c(C(=O)NCCc3ccc(C(=O)O)s3)cccc2c1 [Example 9, 5-(2-(6-Hexyl-1-naphthamido)ethyl)thiophene-2-carboxylic acid]
Ki (EP4 [1]): 2450 nM | EC50 (EP4 [4]): 9400 nM | EC50 (EP2 [2]): 25 nM | Ki (EP2 [3]): 3210 nM

CCCCCCc1cnc2c(C(=O)Nc3cccc(OCC(=O)O)c3)cccc2c1 [Example 12, 2-(3-(3-Hexylquinoline-8-carboxamido)phenoxy)acetic acid]
EC50 (hEP3A): 13300 nM | Ki (EP4 [1]): 2150 nM | EC50 (EP4 [4]): 4680 nM | EC50 (hTP): 6560 nM | EC50 (EP2 [2]): 0.8 nM | Ki (EP2 [3]): 25 nM

CCCCCCc1ccc2c(C(=O)Nc3cccc(OCC(=O)OC(C)C)c3)cccc2c1 [Isopropyl 2-(3-(6-hexyl-1-naphthamido)phenoxy)acetate]
maximum ocular surface hyperemia (OSH) score (normotensive dogs; 0.05%, once daily for 5 days, at 26 h): 1.0

CCCCCOc1ccc2c(C(=O)Nc3cccc(OCC(=O)O)c3)cccc2c1 [Example 15, 2-(3-(6-(Pentyloxy)-1-naphthamido)phenoxy)acetic acid]
Ki (EP4 [1]): 8480 nM | EC50 (EP2 [2]): 25 nM | EC50 (EP4 [5]): > 10000 nM | Ki (EP2 [3]): 201 nM

CCCCc1cnc2c(C(=O)NCCc3ccc(C(=O)O)s3)cccc2c1 [Example 14, 5-(2-(3-Butylquinoline-8-carboxamido)ethyl)thiophene-2-carboxylic acid]
Ki (EP4 [1]): 2030 nM | EC50 (EP2 [2]): 12 nM | EC50 (EP4 [5]): > 10000 nM | Ki (EP2 [3]): 350 nM

CCCCCCc1cnc2c(C(=O)Nc3cccc(OCC(=O)OC(C)C)c3)cccc2c1 [Isopropyl 2-(3-(3-hexylquinoline-8-carboxamido)phenoxy)acetate]
maximum ocular surface hyperemia (OSH) score (normotensive dogs; 0.01%, once daily for 5 days, at 28 h): 0.8

Cc1ccc2c(C(=O)Nc3cccc(OCC(=O)O)c3)cccc2c1 [Example 7, 2-(3-(6-Methyl-1-naphthamido)phenoxy)acetic acid]
Ki (EP4 [1]): > 10000 nM | EC50 (EP2 [2]): 65 nM | Ki (EP2 [3]): 1190 nM

CCCC(O)c1ccc2c(C(=O)Nc3cccc(OCC(=O)O)c3)cccc2c1 (centres unmarked) [Example 11, 2-(3-(6-(1-Hydroxybutyl)-1-naphthamido)phenoxy)acetic acid]
Ki (EP4 [1]): 5310 nM | EC50 (EP2 [2]): 0.7 nM | Ki (EP2 [3]): 63 nM

O=C(O)COc1cccc(NC(=O)c2cccc3ccccc23)c1 [Example 8, 2-(3-(1-Naphthamido)phenoxy)acetic acid]
Ki (EP4 [1]): > 10000 nM | EC50 (EP2 [2]): 83 nM | Ki (EP2 [3]): 4600 nM

CCCCCc1ccc2c(C(=O)Nc3cccc(OCC(=O)O)c3)cccc2c1 [Example 2, 2-(3-(6-Pentyl-1-naphthamido)phenoxy)acetic acid]
Ki (EP4 [1]): > 10000 nM | EC50 (EP2 [2]): 2 nM | Ki (EP2 [3]): 383 nM

CCCCc1cnc2c(C(=O)Nc3cccc(OCC(=O)O)c3)cccc2c1 [Example 13, 2-(3-(3-Butylquinoline-8-carboxamido)phenoxy)acetic acid]
Ki (EP4 [1]): 2060 nM | EC50 (EP2 [2]): 2 nM | EC50 (EP4 [5]): > 10000 nM | Ki (EP2 [3]): 27 nM

CCCCc1ccc2c(C(=O)Nc3cccc(OCC(=O)O)c3)cccc2c1 [Example 3, 2-(3-(6-Butyl-1-naphthamido)phenoxy)acetic acid]
Ki (EP4 [1]): > 10000 nM | EC50 (EP2 [2]): 1 nM | Ki (EP2 [3]): 51 nM

CCCCCCc1ccc2c(C(=O)Nc3cccc(OCC(=O)O)c3)cccc2c1 [Example 1, 2-(3-(6-Hexyl-1-naphthamido)phenoxy)acetic acid]
Ki (EP4 [1]): > 10000 nM | EC50 (EP2 [2]): 2 nM | Ki (EP2 [3]): 99 nM

CCCCc1ccc2c(C(=O)Nc3cccc(OCC(=O)OC(C)C)c3)cccc2c1 [Isopropyl 2-(3-(6-butyl-1-naphthamido)phenoxy)acetate]
maximum ocular surface hyperemia (OSH) score (normotensive dogs; 0.01%, once daily for 4 days, at 4 h): 0.9

CCCCCCCc1ccc2c(C(=O)Nc3cccc(OCC(=O)O)c3)cccc2c1 [Example 4, 2-(3-(6-Heptyl-1-naphthamido)phenoxy)acetic acid]
Ki (EP4 [1]): 7680 nM | EC50 (EP4 [4]): > 10000 nM | EC50 (EP2 [2]): 15 nM | Ki (EP2 [3]): 1200 nM
